# Values quoted from earlier work, collected in article PMC10364322, “Evaluation of chronic drug-induced electrophysiological and cytotoxic effects using human-induced pluripotent stem cell-derived cardiomyocytes (hiPSC-CMs)” (Frontiers in Pharmacology, 2023).
# Conditions: free therapeutic Cmax in humans; ref FDA-approved drug packages, PharmaPendium; cited from earlier work
row,SMILES,Free Cmax [nM]
1,C[C@H](CS)C(=O)N1CCC[C@H]1C(=O)O [Captopril],2300
2,COc1cccc2c1C(=O)c1c(O)c3c(c(O)c1C2=O)C[C@@](O)(C(=O)CO)C[C@@H]3O[C@H]1C[C@H](N)[C@H](O)[C@H](C)O1 [Doxorubicin],7400
3,Cc1cn(-c2cc(NC(=O)c3ccc(C)c(Nc4nccc(-c5cccnc5)n4)c3)cc(C(F)(F)F)c2)cn1 [Nilotinib],100
4,N=C(N)c1ccc(OCCCCCOc2ccc(C(=N)N)cc2)cc1 [Pentamidine],200
5,CCN(CC)CCNC(=O)c1c(C)[nH]c(/C=C2\C(=O)Nc3ccc(F)cc32)c1C [Sunitinib],30
6,C#Cc1cccc(Nc2ncnc3cc(OCCOC)c(OCCOC)cc23)c1 [Erlotinib],3900

# Same assay, conditions: prolonged intravenous administration; ref Sands et al., 1985; Conte et al., 1986; Cordes et al., 2005; cited from earlier work
row,SMILES,exposures in patients (TdP cases after intravenous administration) [µM]
1,N=C(N)c1ccc(OCCCCCOc2ccc(C(=N)N)cc2)cc1 [Pentamidine],1 to 5
